Data on two molecules can be found in ChEMBL document CHEMBL3785029, “Synthesis and Characterization of Fatty Acid Conjugates of Niacin and Salicylic Acid” (J Med Chem, 2016).

Data set [1] concerns the target T1, Fatty-acid amide hydrolase 1 (Homo sapiens, UniProt O00519).
T1 sequence (O00519 whole entry): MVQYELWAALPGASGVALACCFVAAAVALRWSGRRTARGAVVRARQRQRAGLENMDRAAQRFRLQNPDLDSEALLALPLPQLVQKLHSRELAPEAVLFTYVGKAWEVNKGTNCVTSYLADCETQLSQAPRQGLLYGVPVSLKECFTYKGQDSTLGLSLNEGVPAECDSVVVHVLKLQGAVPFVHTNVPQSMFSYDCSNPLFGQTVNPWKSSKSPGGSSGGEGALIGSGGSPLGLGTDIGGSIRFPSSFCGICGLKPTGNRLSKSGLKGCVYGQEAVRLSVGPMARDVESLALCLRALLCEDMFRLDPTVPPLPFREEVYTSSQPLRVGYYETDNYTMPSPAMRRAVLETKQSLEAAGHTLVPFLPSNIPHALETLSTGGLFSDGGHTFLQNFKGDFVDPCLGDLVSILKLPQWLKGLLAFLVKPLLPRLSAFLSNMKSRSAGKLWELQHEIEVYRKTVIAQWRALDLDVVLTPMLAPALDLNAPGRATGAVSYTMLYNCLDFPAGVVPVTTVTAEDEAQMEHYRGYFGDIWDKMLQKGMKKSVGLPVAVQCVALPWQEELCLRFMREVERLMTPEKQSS
Description: Drug metabolism assessed as human recombinant N-terminal FLAG/C-terminal His-tagged FAAH1 (32 to 579 residues)-mediated compound hydrolysis by measuring release of EPA at 25 uM after 2 hrs by LC/MS-MS analysis in presence of PF-3845. The format is ADME.

Data set [2] concerns the target T1, Fatty-acid amide hydrolase 1. Description: Drug metabolism assessed as human recombinant N-terminal FLAG/C-terminal His-tagged FAAH1 (32 to 579 residues)-mediated compound hydrolysis by measuring release of EPA at 25 uM by LC/MS-MS analysis. The format is ADME. The settings on record: TDE = time-dependent effect.
The test system of data set [3] is Plasma. Description: Drug metabolism in Sprague-Dawley rat plasma assessed as linker EPA metabolite (5Z,8Z,11Z,14Z,17Z)-N-(2-aminoethyl)icosa-5,8,11,14,17-pentaenamide formation at 300 mg/kg, qd administered through oral gavage for 7 days measured 2 hrs post last dose by LC/MS/MS analysis. The format is ADME, organism-based. The settings on record: in vivo.
For data set [4], the target named is T1, Fatty-acid amide hydrolase 1. Kind of data set: Drug metabolism in human HepG2 cells assessed as FAAH-mediated compound hydrolysis by measuring level of EPA at 50 uM by LC/MS-MS analysis. The settings on record: hepg2, 50 µM, TDE = time-dependent effect. The format is ADME, cell-based.
Data set [5] concerns Brain. Description: Drug uptake in Sprague-Dawley rat brain at 300 mg/kg, po administered for 14 days followed by 7 day washout cycle measured on day 21. The conditions noted are these: in vivo. The format is ADME, organism-based.
For data set [6], the system named is Brain. Description: Drug uptake in Sprague-Dawley rat brain at 300 mg/kg, po administered for 14 days measured 4 hrs post dose on day 1, 3, 7 and 14. The conditions noted are these: in vivo.
For data set [7], the system named is Plasma. Description: Drug metabolism in Sprague-Dawley rat plasma assessed as salicylic acid formation at 300 mg/kg, po administered for 14 days followed by 7 day washout cycle measured on day 21. The format is ADME, organism-based. The conditions noted are these: in vivo.

With `CC/C=C\C/C=C\C/C=C\C/C=C\C/C=C\CCCC(=O)NCCNC(=O)c1cccnc1`, the Drug metabolism result in data set [1] was “metabolite_notdetected”; in data set [2] it was “tde”; in the data set on Plasma [3], 1.1 ng/mL; in data set [4], “tde”.

Regarding `CC/C=C\C/C=C\C/C=C\C/C=C\C/C=C\C/C=C\CCC(=O)NCCNC(=O)c1ccccc1O` [EDASALONEXENT], the Drug uptake entry in the data set on Brain [5] and with Brain [6] was “Not Active” in each case. In addition, the Drug metabolism result in the data set on Plasma [7] is given as “metabolite_notdetected”.
